In patent US12594263B2, “CBL inhibitors and compositions for expansion of immune cells” (Nurix Therapeutics, Inc., priority 2019, dated 2026):

Test system: E.G7-OVA tumors
Test: Oral Cbl inhibitor treatment of mice given expanded OT-1 cells
Type: in vivo, mouse
Experimental: Tumor volume was measured roughly every five days after cell transfer.
OT-1 cells were assessed in mouse blood 5 days and 20 days after transfer.

[1] = 5 days and 20 days after transfer (FIGS. 20A, 20B)

C[C@H]1CCCN(Cc2cc3c(c(C(F)(F)F)c2)CN(c2cccc([C@]4(c5nncn5C)C[C@@H](C)C4)c2)C3=O)C1 [Compound 116]
Frequency of OT-1 cells in mouse blood [1]: increased frequency of OT-1 cells | Persistence of OT-1 cells in mouse blood [1]: longer persistence of OT-1 cells | Anti-tumor efficacy of OT-1 cells expanded with compound 103 plus IL-2 (tumor volume) (oral administration (FIG. 18)): enhanced the anti-tumor efficacy | Survival of mice treated with OT-1 cells expanded with compound 103 plus IL-2 (oral administration (FIG. 19)): enhanced survival
